Laboratory results taken from publication PMC10913730, “Antimicrobial activity of a natural compound and analogs against multi-drug-resistant Gram-positive pathogens” (Microbiology Spectrum, 2024).
In brackets after ≈: the same amount, converted by molar mass. Where two headings read alike, the source gives them in different places.

Columns and labels:
[1] = pH and Ka of 10-g/L aqueous solutions (pH meter); type: physicochemical; settings: 10-g/L solution in distilled, deionized water; for pH of solution: room temperature
[2] = system: MRSA isolates; test: MIC/MBC, CLSI broth microdilution, MRSA isolates; type: cell-based, Staphylococcus aureus; settings: for change of MIC and MBC with the reduction in pH: six MRSA isolates, pH lowered to 5.5
[3] = system: Staphylococcus epidermidis isolates; test: microbe, parasite or virus in culture; type: cell-based
[4] = system: Enterococcus faecalis; test: MIC/MBC against Enterococcus faecalis; type: cell-based
[5] = system: Streptococcus pyogenes; test: MIC/MBC against Streptococcus pyogenes; type: cell-based; settings: for MBC: Streptococcus pyogenes
[6] = system: Pseudomonas aeruginosa; test: MIC against Pseudomonas aeruginosa; type: cell-based
[7] = system: MRSA isolates SA LL 06 and TCH 1516; test: Kill kinetics against stationary-phase MRSA; type: cell-based, Staphylococcus aureus; settings: shaking, 37°C
Method: MRSA isolates, TCH 1516 and SA LL 06, were grown to the stationary phase, and the rate of bacterial killing was determined. Frozen bacterial stocks were streaked onto TSA plates and grown overnight. A single colony was selected and incubated overnight in LB broth at 37°C with constant orbital shaking at 200 RPM. Next, bacterial suspension was washed twice with 150 mM sodium chloride and resuspended in MH broth at a concentration of 1.2E9 CFU/mL. […] Glass tubes containing 5 mL of bacteria and drug solutions were grown in a shaking incubator at 37°C. At 0, 4, 8, and 24 hours, bacterial suspensions were collected, serially diluted, and plated onto a blood agar plate. Bacteria were allowed to grow for 24 hours and were enumerated to yield colony-forming units per milliliter.

[8] = system: MRSA isolate SAD05 biofilms; type: cell-based, Staphylococcus aureus; settings: 72-hour biofilms of SAD05, MBEC assay
[9] = system: MRSA isolate TCH 1516; test: Single-step resistance development; type: cell-based, Staphylococcus aureus; settings: TCH 1516 stationary phase; C59 as low as 2× MIC, vancomycin up to 8× MIC
Method: For the single-step study, bacteria were grown to the stationary phase as described above. Bacteria at a concentration of 1E9 CFU were then plated onto C59 and vancomycin-loaded plates containing 1×, 2×, 4×, and 8× MIC concentrations of the therapeutic agents with 1% DMSO. Bacteria were incubated at 37°C for 48 hours, and colony counts were enumerated to calculate the frequency of resistance development, as described in the literature ([45], [46]).

[10] = system: MRSA isolate TCH 1516; test: Resistance acquisition during serial passage; type: cell-based, Staphylococcus aureus; settings: serial passage, after 21 days
Method: MRSA isolate TCH 1516 was grown to the stationary phase (OD650 = 1.0) in 10 mL of MH broth. […] The second highest drug concentration resulting in bacterial growth (OD650 >1.0) was used as the inoculum after a 1:1,000 dilution for subsequent steps, every 24 hours, for up to 21 days.

[11] = system: human dermal fibroblast (HDF) cells; test: alamarBlue cell viability assay, HDF; settings: HDFs, 24-hour incubation, non-linear regression
[12] = system: human bronchial epithelial (16HBE) cells; test: alamarBlue cell viability assay, 16HBE; settings: 24-hour incubation, non-linear regression
[13] = system: erythrocytes (sheep blood); test: Hemolytic activity against sheep erythrocytes
[14] = Aqueous solubility of compounds reconstituted at 10 mg/mL in water; settings: 10 mg/mL in distilled deionized water
[15] = Staphylococcus aureus, MRSA, pH 5.5, MRSA 0606, pH 5.5
[16] = Staphylococcus aureus, MRSA, pH 5.5, MRSA 0608, pH 5.5
[17] = Staphylococcus aureus, MRSA, pH 5.5, MRSA 0634, pH 5.5
[18] = Staphylococcus aureus, MRSA, pH 5.5, MRSA 0641, pH 5.5
[19] = Staphylococcus aureus, MRSA, pH 5.5, MRSA 0646, pH 5.5
[20] = Staphylococcus aureus, MRSA, pH 5.5, TCH 1516, pH 5.5
[21] = Staphylococcus aureus, MRSA, pH 6.5, MRSA 0606, pH 6.5
[22] = Staphylococcus aureus, MRSA, pH 6.5, MRSA 0608, pH 6.5
[23] = Staphylococcus aureus, MRSA, pH 6.5, MRSA 0634, pH 6.5
[24] = Staphylococcus aureus, MRSA, pH 6.5, MRSA 0641, pH 6.5
[25] = Staphylococcus aureus, MRSA, pH 6.5, MRSA 0646, pH 6.5
[26] = Staphylococcus aureus, MRSA, pH 6.5, TCH 1516, pH 6.5
[27] = Staphylococcus aureus, MRSA, pH 7.4, MRSA 0606, pH 7.4
[28] = Staphylococcus aureus, MRSA, pH 7.4, MRSA 0608, pH 7.4
[29] = Staphylococcus aureus, MRSA, pH 7.4, MRSA 0634, pH 7.4
[30] = Staphylococcus aureus, MRSA, pH 7.4, MRSA 0641, pH 7.4
[31] = Staphylococcus aureus, MRSA, pH 7.4, MRSA 0646, pH 7.4
[32] = Staphylococcus aureus, MRSA, pH 7.4, TCH 1516, pH 7.4
[33] = 21 Staphylococcus epidermidis isolates
[34] = ATCC49532, Enterococcus faecalis (ATCC 49532)
[35] = ATCC51575, Enterococcus faecalis (ATCC 51575)
[36] = Streptococcus pyogenes (NR1575)

In the case of `Oc1c(Cl)cc(Cl)cc1-c1cc(Cl)cc(Cl)c1O` [C59, 3,3′,5,5′-tetrachloro-[1,1′-biphenyl]−2,2′-diol], the “acid dissociation constant (Ka)” value [1] is reported as 6.18 × 10^−19, the pH of solution [1] is reported as 9.86 and the MIC90 ([2]; Staphylococcus aureus, MRSA, 39 evaluated MRSA isolates, CLSI broth microdilution) is reported as 2 µg/mL (≈ 6.17 µM). For the same molecule, the MIC ([2]; Staphylococcus aureus, MRSA, SA LL 06, as given for the kill kinetic assay) was 2 µg/mL (≈ 6.17 µM), the MIC ([2]; Staphylococcus aureus, MRSA, TCH 1516, as given for the kill kinetic assay) was 2 µg/mL (≈ 6.17 µM) and the MBC [2, 15] was 0.5 µg/mL (≈ 1.54 µM). For the same molecule, the MIC [2, 15] was 0.5 µg/mL (≈ 1.54 µM), the MBC [2, 16] was 0.5 µg/mL (≈ 1.54 µM) and the MIC [2, 16] was 0.5 µg/mL (≈ 1.54 µM). It also gave an MBC [2, 17] of 0.5 µg/mL (≈ 1.54 µM), an MIC [2, 17] of 0.5 µg/mL (≈ 1.54 µM) and an MBC [2, 18] of 0.5 µg/mL (≈ 1.54 µM). The MIC [2, 18] was 0.5 µg/mL (≈ 1.54 µM), the MBC [2, 19] was 0.5 µg/mL (≈ 1.54 µM) and the MIC [2, 19] was 0.5 µg/mL (≈ 1.54 µM). For the same molecule, the MBC [2, 20] was 0.5 µg/mL (≈ 1.54 µM), the MIC [2, 20] was 0.5 µg/mL (≈ 1.54 µM) and the MBC ([2]; Staphylococcus aureus, MRSA, pH 5.5, read-out: Average MBC, average of six MRSA isolates, pH 5.5) was 0.5 µg/mL (≈ 1.54 µM). The MIC ([2]; Staphylococcus aureus, MRSA, pH 5.5, read-out: Average MIC, average of six MRSA isolates, pH 5.5) was 0.5 µg/mL (≈ 1.54 µM), the MBC [2, 21] was 6 µg/mL (≈ 18.5 µM) and the MIC [2, 21] was 1 µg/mL (≈ 3.09 µM). For the same molecule, the MBC [2, 22] was 2 µg/mL (≈ 6.17 µM), the MIC [2, 22] was 2 µg/mL (≈ 6.17 µM) and the MBC [2, 23] was 4 µg/mL (≈ 12.3 µM). The MIC [2, 23] was 1 µg/mL (≈ 3.09 µM), the MBC [2, 24] was 4 µg/mL (≈ 12.3 µM) and the MIC [2, 24] was 1 µg/mL (≈ 3.09 µM). For the same molecule, the MBC [2, 25] was 4 µg/mL (≈ 12.3 µM), the MIC [2, 25] was 1 µg/mL (≈ 3.09 µM) and the MBC [2, 26] was 4 µg/mL (≈ 12.3 µM). For the same molecule, the MIC [2, 26] was 1 µg/mL (≈ 3.09 µM), the MBC ([2]; Staphylococcus aureus, MRSA, pH 6.5, read-out: Average MBC, average of six MRSA isolates, pH 6.5) was 4 µg/mL (≈ 12.3 µM) and the MIC ([2]; Staphylococcus aureus, MRSA, pH 6.5, read-out: Average MIC, average of six MRSA isolates, pH 6.5) was 1.2 µg/mL (≈ 3.7 µM). The MBC [2, 27] was 4 µg/mL (≈ 12.3 µM), the MIC [2, 27] was 2 µg/mL (≈ 6.17 µM) and the MBC [2, 28] was 6 µg/mL (≈ 18.5 µM). It also gave an MIC [2, 28] of 2 µg/mL (≈ 6.17 µM), an MBC [2, 29] of 8 µg/mL (≈ 24.7 µM) and an MIC [2, 29] of 2 µg/mL (≈ 6.17 µM). It also gave an MBC [2, 30] of 8 µg/mL (≈ 24.7 µM), an MIC [2, 30] of 2 µg/mL (≈ 6.17 µM) and an MBC [2, 31] of 4 µg/mL (≈ 12.3 µM). For the same molecule, the MIC [2, 31] was 2 µg/mL (≈ 6.17 µM), the MBC [2, 32] was 4 µg/mL (≈ 12.3 µM) and the MIC [2, 32] was 2 µg/mL (≈ 6.17 µM). It also gave an MBC ([2]; Staphylococcus aureus, MRSA, pH 7.4, read-out: Average MBC, average of six MRSA isolates, pH 7.4) of 5.7 µg/mL (≈ 17.6 µM), an MIC ([2]; Staphylococcus aureus, MRSA, pH 7.4, read-out: Average MIC, average of six MRSA isolates, pH 7.4) of 2 µg/mL (≈ 6.17 µM) and an MBC ([2]; Staphylococcus aureus, MRSA, read-out: MBC90, 39 evaluated MRSA isolates, CLSI broth microdilution) of 6 µg/mL (≈ 18.5 µM). The “change of MIC and MBC with the reduction in pH” value [2] was “decreased as much as fourfold”, the MBC range [3, 33] was 6 to 12 µg/mL and the MIC range [3, 33] was 2 to 4 µg/mL. It also gave an MIC90 ([3]; Staphylococcus epidermidis) of 4 µg/mL (≈ 12.3 µM), an MBC ([3]; Staphylococcus epidermidis, read-out: MBC90) of 12 µg/mL (≈ 37 µM) and an MBC [4, 34] of 16 µg/mL (≈ 49.4 µM). For the same molecule, the MIC [4, 34] was 8 µg/mL (≈ 24.7 µM), the MBC [4, 35] was 16 µg/mL (≈ 49.4 µM) and the MIC [4, 35] was 8 µg/mL (≈ 24.7 µM). It also gave an MIC ([5]; Streptococcus pyogenes (NR1571), read-out: MIC) of 6 µg/mL (≈ 18.5 µM), an MIC [5, 36] of 6 µg/mL (≈ 18.5 µM) and an MBC ([5]; Streptococcus pyogenes (NR1571)) of 24 µg/mL (≈ 74.1 µM). For the same molecule, the MBC [5, 36] was 16 µg/mL (≈ 49.4 µM), the MIC ([6]; Pseudomonas aeruginosa (PAM57-15)) was greater than 32 µg/mL and the MIC ([6]; Pseudomonas aeruginosa (PAO1)) was greater than 32 µg/mL. The “bacterial killing after 24 hours” value ([7]; stationary-phase SA LL 06, C59 at 1× and 2× MIC) was “complete bacterial eradication”, the “bacterial killing after 24 hours” value ([7]; stationary-phase TCH 1516) was “did not result in complete bacterial killing” and the “concentration that completely eradicated biofilms” value [8] was 16 µg/mL. The “growth on drug-loaded plates” value [9] was “No growth”, the “increase in MIC” value [10] was “no change in MIC” and the LD50 [11] was 56.0 µg/mL. The LD50 [12] was 40.2 µg/mL, the “concentrations at which erythrocytes were not lysed” value ([13]; 1% sheep blood, 1-hour incubation) was “up to 24 µg/mL” and the “LD50 relative to MIC90” value ([13]; higher than MIC90, stated in the hemolysis discussion, cell type not named) was 24 fold.
For `CC(=O)Oc1c(Cl)cc(Cl)cc1-c1cc(Cl)cc(Cl)c1OC(C)=O` [C59Ac], the “acid dissociation constant (Ka)” value [1] was 2.45 × 10^−12, the pH of solution [1] was 6.61 and the MBC ([2]; MRSA 0606, pH 7.4) was 8 µg/mL (≈ 19.6 µM). It also gave an MIC ([2]; MRSA 0606, pH 7.4) of 4 µg/mL (≈ 9.8 µM), an MBC ([2]; MRSA 0608, pH 7.4) of 12 µg/mL (≈ 29.4 µM) and an MIC ([2]; MRSA 0608, pH 7.4) of 4 µg/mL (≈ 9.8 µM). For the same molecule, the MBC ([2]; MRSA 0634, pH 7.4) was 4 µg/mL (≈ 9.8 µM), the MIC ([2]; MRSA 0634, pH 7.4) was 4 µg/mL (≈ 9.8 µM) and the MBC ([2]; MRSA 0641, pH 7.4) was 12 µg/mL (≈ 29.4 µM). The MIC ([2]; MRSA 0641, pH 7.4) was 4 µg/mL (≈ 9.8 µM), the MBC ([2]; MRSA 0646, pH 7.4) was 8 µg/mL (≈ 19.6 µM) and the MIC ([2]; MRSA 0646, pH 7.4) was 4 µg/mL (≈ 9.8 µM). The MBC ([2]; TCH 1516, pH 7.4) was 4 µg/mL (≈ 9.8 µM), the MIC ([2]; TCH 1516, pH 7.4) was 4 µg/mL (≈ 9.8 µM) and the “change of MIC and MBC with the reduction in pH” value [2] was “remained unchanged”. The aqueous solubility [14] was “moderate aqueous solubility”.
